{"source": "patent US20070098777A1", "about": "“Pharmaceutical or Food Composition for Treatment or Prevention of Brain Edema” (AJINOMOTO CO., INC., priority 2000, published 2007)", "key": {"[1]": {"tested_on": "astrocytes", "assay": "Injury of incubated astrocytes by 3-NPA, neutron red assay", "type": "cell-based, rat", "conditions": "average ± SE, after 3 days", "experimental": "(§1) Isolation and incubation of astrocytes were conducted according to the method as described in Neuroscience, 87: […], 1998. Thus, cerebral cortex of a fetal rat was removed, from which astrocytes were separated with trypsin treatment at 37° C. for 20 minutes and incubated on a 24 well culture dish containing DMEM media+10% FBS under 5% CO2/air atmosphere at 37° C.\n(§2) The injury of incubated astrocytes was induced by replacing the medium with a serum-free DMEM medium (serum-free group) or adding 6 mM of a metabolic inhibitor, 3-nitropropionic acid (3-NPA), to the medium (3-NPA group). The serum-free group and the 3-NPA group were divided into two sub-groups, respectively. To one sub-group of each group, 10 μg/ml of melatonin was added to the medium.\n(§3) The number of the alive astrocytes was counted according to the neutron red assay after 3 days from the incubation in the 3-NPA group or according to the MTT (3-(4,5-dimethyl-thiozolyl)-2,5-diphenyl-tetrazolium bromide) assay after 10 days from the replacement of the medium. The test of significance was conducted by ANOVA."}, "[2]": {"tested_on": "astroglia", "assay": "GFAP staining of brain specimens after brain ischemia (middle cerebral artery plug, 1 h, recanalization)", "type": "in vivo, rat", "conditions": "11 days after onset of ischemia, 6 mg/kg melatonin for 10 days, versus non-melatonin group", "excerpt": "Eight to ten-week-old Wister male rats having the body weight of 250 to 300 g were used.\nUnder halothane anesthesia, a 24 G plug was inserted from a right external carotid artery of each rat so as to arrive to an origin of its middle cerebral artery of Willis's circle through its internal carotid artery. Immediately the anesthesia was stopped and the rat was dehypnotized. After one hour, the plug was taken out under halothane anesthesia, thereby a blood flow was recanalized.\nAfter 11 days from an onset of brain ischemia, the brain of each rat was fixed with an aqueous 4% paraformaldehyde solution to prepare a brain specimen. Then, the brain specimen was stained according to the standard ABC method using an anti-GFAP antibody (GFAP staining; astroglia were stained)\nIschemic rats in Example 1 were divided into two groups. In the first group (non-melatonin administration group), a physiological saline solution was injected to a stomach of each rat using a sound for 10 days from the first day (24 hours after the recanalization of the blood flow). In the second group (melatonin administration group), a melatonin-containing physiological saline solution was similarly administered in an amount of 6 mg of melatonin per kg of rat. […]"}, "[3]": {"tested_on": "blood-brain barrier", "assay": "IgG diapedesis area from blood vessel after brain ischemia (anti-IgG staining, NIH imaging)", "type": "in vivo, rat", "conditions": "average ± SE; 6 mg/kg melatonin into stomach for 10 days from 24 hours after recanalization; 11 rats", "excerpt": "Eight to ten-week-old Wister male rats having the body weight of 250 to 300 g were used. Under halothane anesthesia, a 24 G plug was inserted from a right external carotid artery of each rat so as to arrive to an origin of its middle cerebral artery of Willis's circle through its internal carotid artery. Immediately the anesthesia was stopped and the rat was dehypnotized. After one hour, the plug was taken out under halothane anesthesia, thereby a blood flow was recanalized. Ischemic rats in Example 1 were divided into two groups. In the first group (non-melatonin administration group), a physiological saline solution was injected to a stomach of each rat using a sound for 10 days from the first day (24 hours after the recanalization of the blood flow). In the second group (melatonin administration group), a melatonin-containing physiological saline solution was similarly administered in an amount of 6 mg of melatonin per kg of rat."}, "[4]": {"tested_on": "cheek pouch of a hamster", "conditions": "cited from earlier work"}, "[5]": {"tested_on": "production of NO in brain", "conditions": "after transient ischemia/recirculation; cited from earlier work"}, "[6]": {"tested_on": "neurons", "assay": "MAP-2 staining of brain specimens after brain ischemia", "type": "in vivo, rat", "conditions": "6 mg/kg melatonin for 10 days, versus non-melatonin group"}, "[7]": {"tested_on": "acute pancreatitis (pancreatic edema) induced by cerulein", "conditions": "rats; cited from earlier work"}, "[8]": {"tested_on": "CA1 hippocampal neurons", "conditions": "intraperitoneally, especially prior to cerebral ischemia or during recanalization; cited from earlier work"}, "[9]": {"tested_on": "astrocytes", "assay": "Injury of incubated astrocytes by serum-free medium, MTT assay", "type": "cell-based, rat", "conditions": "average ± SE, serum-free DMEM + 10 μg/ml melatonin, after 10 days", "experimental": "as §1, §2, §3"}, "[10]": {"tested_on": "ischemic or histamine-induced paw edema", "conditions": "various antioxidants including melatonin, together with dexamethasone; cited from earlier work"}, "[11]": {"tested_on": "carrageenan-induced inflammatory paw swelling", "conditions": "rats; cited from earlier work"}}}
{"smiles": "O=C(O)CC[N+](=O)[O-]", "note": "[3-NPA, 3-nitropropionic acid]", "values": [{"measurement": "number of astrocytes", "setting": "[1]; 6 mM 3-NPA alone", "value": "50 ± 5 % of control"}]}
{"smiles": "COc1ccc2[nH]cc(CCNC(C)=O)c2c1", "note": "[melatonin, N-[2-(5-methoxy-1H-indol-3-yl)ethyl]acetamide]", "values": [{"measurement": "falling out of astroglia in ischemic core area and gliosis in penumbra area", "setting": "[2]", "value": "reduced"}, {"measurement": "IgG diapedesis area, cerebral cortex", "setting": "[3]", "value": "5.5 ± 4.5", "unit": "mm^2"}, {"measurement": "IgG diapedesis area, corpus striatum", "setting": "[3]", "value": "7.2 ± 4.0", "unit": "mm^2"}, {"measurement": "edema caused by ischemia-reperfusion of microcirculation", "setting": "[4]; hamster cheek pouch", "value": "reduces edema"}, {"measurement": "increase of permeability of capillaries caused by free radicals", "setting": "[4]; topical exposure to hypoxanthine-xanthine oxidase", "value": "reduces the increase of permeability"}, {"measurement": "production of NO in brain", "setting": "[5]", "value": "inhibits"}, {"measurement": "number of the alive neurons", "setting": "[6]", "value": "higher"}, {"measurement": "acute pancreatitis (pancreatic edema) induced by cerulein", "setting": "[7]", "value": "reduces an acute pancreatitis"}, {"measurement": "protection of CA1 hippocampal neurons from ischemic injury", "setting": "[8]", "value": "protects"}, {"measurement": "number of astrocytes", "setting": "[1]; 6 mM 3-NPA + 10 μg/ml melatonin, neutral red assay", "value": "63 ± 4 % of control"}, {"measurement": "number of astrocytes", "setting": "[9]", "value": "48 ± 4 % of control"}, {"measurement": "suppression by dexamethasone of ischemic or histamine-induced paw edema", "setting": "[10]", "value": "enhance or prolong"}, {"measurement": "carrageenan-induced inflammatory paw swelling", "setting": "[11]", "value": "suppresses"}]}
